Test results published in patent US20210181179A1, “DIAGNOSIS AND TREATMENT OF IMMUNOTHERAPY-INDUCED NEUROTOXICITY” (MEMORIAL SLOAN KETTERING CANCER CENTER, priority 2018, published 2021).

Key:
CCF-STTG1 (astrocytoma) = assay: Net production of TRP metabolites in media samples, CCF-STTG1; assay type: cell-based, human
Text: (§1) Under physiological conditions in the brain, kynurenine metabolism is driven by microglial cells and astrocytes with preferential production of QUIN and KA respectively. […] This may have been due to T cells producing cytokines and/or intermediate metabolites that are further metabolized to QUIN by the cells. In order to identify specific factors that may lead to tryptophan-kynurenine pathway up-regulation for QUIN production, we tested a panel of cytokine and chemokines implicated in NTX and CRS. […] We initially evaluated the panel of the select factors individually (FIGS. 16 A-B). We selected several cytokines based on their effect on rate-limiting enzymes for QUIN production. These included IFNγ, TNF, […], CXCL10 and […]. These enzymes were selected based on their regulation of key enzymes, KMO and KYNU, which may lead to supraphysiological accumulation of QUIN. These factors were further evaluated, individually or in combination, on astrocytoma, microglial, and primary monocyte-derived macrophages for mRNA levels of kynurenine pathway enzymes and kynurenine metabolites production (FIG. 17).

SUP-B15 (B-ALL) = assay: Net production of TRP metabolites in media samples, SUP-B15; assay type: cell-based
HMC3 (microglia) = assay: Net production of TRP metabolites in media samples, HMC3; assay type: cell-based, human
Text: as §1

RS4; 11 (B-ALL) = assay: Net production of TRP metabolites in media samples, RS4; 11; assay type: cell-based
BV173 (B-ALL) = assay: Net production of TRP metabolites in media samples, BV173; assay type: cell-based
HCN2 (cortical neuron) = assay: Net production of TRP metabolites in media samples, HCN2; assay type: cell-based
ALL3.1 (B-ALL) = assay: Net production of TRP metabolites in media samples, ALL3.1; assay type: cell-based
CCRF-SB (B-ALL) = assay: Net production of TRP metabolites in media samples, CCRF-SB; assay type: cell-based
THP-1 (monocyte) = assay: Net production of TRP metabolites in media samples, THP-1; assay type: cell-based
KARPAS231 (B-ALL) = assay: Net production of TRP metabolites in media samples, KARPAS231; assay type: cell-based
DOAY (medulloblastoma) = assay: Net production of TRP metabolites in media samples, DOAY; assay type: cell-based

For IFNα, the “Net production of TRP metabolites in media samples: 3-HK” value (from here on “Net production … 3-HK”) (CCF-STTG1 (astrocytoma)) was −13.12 ± 0.55, the “Net production of TRP metabolites in media samples: HAA” value (“Net production … HAA” below) (CCF-STTG1 (astrocytoma)) was 10.54 ± 0.8 and the “Net production of TRP metabolites in media samples: KA” value (from here on “Net production … KA”) (CCF-STTG1 (astrocytoma)) was 3.46 ± 1. The “Net production of TRP metabolites in media samples: KYN” value (from here on “Net production … KYN”) (CCF-STTG1 (astrocytoma)) was 4734.38 ± 128, the “Net production of TRP metabolites in media samples: QUIN” value (shortened to “Net production … QUIN”) (CCF-STTG1 (astrocytoma)) was 15.16 ± 5.5 and the “Net production … 3-HK” value (SUP-B15 (B-ALL)) was 19.38 ± 16.3. The “Net production … HAA” value (SUP-B15 (B-ALL)) was 7.32 ± 1.1, the “Net production … KA” value (SUP-B15 (B-ALL)) was −10.36 ± 4.4 and the “Net production … KYN” value (SUP-B15 (B-ALL)) was 292.4 ± 186.6. For the same substance, the “Net production … QUIN” value (SUP-B15 (B-ALL)) was −79.6 ± 31.2, the “Net production … 3-HK” value (HMC3 (microglia)) was 10.4 ± 18.6 and the “Net production … HAA” value (HMC3 (microglia)) was 0.56 ± 1.8. The “Net production … KA” value (HMC3 (microglia)) was 4.48 ± 3.1, the “Net production … KYN” value (HMC3 (microglia)) was 899.26 ± 383^ and the “Net production … QUIN” value (HMC3 (microglia)) was 42 ± 18.5. For the same substance, the “Net production … 3-HK” value (RS4; 11 (B-ALL)) was −1.96 ± 1.6, the “Net production … KA” value (RS4; 11 (B-ALL)) was −6.3 ± 2.3 and the “Net production … KYN” value (RS4; 11 (B-ALL)) was −14 ± 22.7. The “Net production … QUIN” value (RS4; 11 (B-ALL)) was 40.46 ± 24^, the “Net production … 3-HK” value (BV173 (B-ALL)) was 9.94 ± 8.7 and the “Net production … KA” value (BV173 (B-ALL)) was −3.56 ± 4.1. The “Net production … KYN” value (BV173 (B-ALL)) was 257.66 ± 175.9, the “Net production … QUIN” value (BV173 (B-ALL)) was 6.36 ± 32.9 and the “Net production … 3-HK” value (HCN2 (cortical neuron)) was −4.46 ± 8.2. For the same substance, the “Net production … HAA” value (HCN2 (cortical neuron)) was 5.38 ± 0.4, the “Net production … KA” value (HCN2 (cortical neuron)) was 3.26 ± 6.1 and the “Net production … KYN” value (HCN2 (cortical neuron)) was 105.24 ± 37. For the same substance, the “Net production … QUIN” value (HCN2 (cortical neuron)) was 13.26 ± 31.6, the “Net production … 3-HK” value (ALL3.1 (B-ALL)) was 6.76 ± 6.7 and the “Net production … KA” value (ALL3.1 (B-ALL)) was −1.1 ± 3.4. For the same substance, the “Net production … KYN” value (ALL3.1 (B-ALL)) was 49.4 ± 114.2, the “Net production … QUIN” value (ALL3.1 (B-ALL)) was −55.38 ± 21.2 and the “Net production … 3-HK” value (CCRF-SB (B-ALL)) was 1.16 ± 6.5. The “Net production … HAA” value (CCRF-SB (B-ALL)) was 5.3 ± 0.2, the “Net production … KA” value (CCRF-SB (B-ALL)) was −6.78 ± 4^ and the “Net production … KYN” value (CCRF-SB (B-ALL)) was 93.56 ± 90.1. For the same substance, the “Net production … QUIN” value (CCRF-SB (B-ALL)) was −47.16 ± 28.1, the “Net production … 3-HK” value (THP-1 (monocyte)) was 0.62 ± 1.4 and the “Net production … KA” value (THP-1 (monocyte)) was −8.98 ± 2.2. The “Net production … KYN” value (THP-1 (monocyte)) was 101.24 ± 17.6, the “Net production … QUIN” value (THP-1 (monocyte)) was 12.08 ± 32.1 and the “Net production … 3-HK” value (KARPAS231 (B-ALL)) was 5.48 ± 2.1. For the same substance, the “Net production … HAA” value (KARPAS231 (B-ALL)) was 30.76 ± 4.2, the “Net production … KA” value (KARPAS231 (B-ALL)) was −9.3 ± 5.1 and the “Net production … KYN” value (KARPAS231 (B-ALL)) was 200.48 ± 77.6. The “Net production … QUIN” value (KARPAS231 (B-ALL)) was −42.74 ± 33.3, the “Net production … 3-HK” value (DOAY (medulloblastoma)) was −13.46 ± 0.5 and the “Net production … HAA” value (DOAY (medulloblastoma)) was 11.62 ± 0.8. The “Net production … KA” value (DOAY (medulloblastoma)) was 10.28 ± 3.2, the “Net production … KYN” value (DOAY (medulloblastoma)) was 263.2 ± 20^ and the “Net production … QUIN” value (DOAY (medulloblastoma)) was 54.5 ± 21.8.
